Where only a bound is given, the exact number is not on record here.

The values below come from PMC5433098, “Intrinsic Toxin-Derived Peptides Destabilize and Inactivate Clostridium difficile TcdB” (mBio, 2017).

The subject of data set [1] is TcdB1. Description: Transepithelial electrical resistance (TER) in T84 cells. Conditions: polarized T84 cells, 40 pM TcdB1, 50 µM peptide, n = 4.
Data set [2] relates to Bacillus anthracis lethal toxin (LT).
Data set [3] has as its system TcdB. Description: TcdB associating with CHO-K1 cells (immunoblot). In kind it is cell-based, Clostridium difficile. Conditions: 37°C, 4 nM TcdB, 50 µM peptide. As for the experimental part: CHO-K1 cells were cultured as described above and were seeded the day before the experiment in 12-well plates at a density of 1.0 × 10^5 cells/well. These cells were then exposed for 10 min or 30 min at 37°C to 4 nM of TcdB in the presence and absence of peptide. After this exposure, the cells were then washed twice with 1 ml of complete medium, and then total proteins were extracted by adding cold lysis buffer (1% SDS, 50 mM Tris-HCl [pH 7.4], 5 mM EDTA, and a protease inhibitor mixture). For each condition, equal amounts of total protein were analyzed by immunoblot probing with antibodies to the amino-terminal domain of TcdB (R&D Systems; catalog no. AF6246) or an antibody to glyceraldehyde-3-phosphate dehydrogenase (GAPDH) (Abcam; catalog no. AB8245).
Background: Immunoblotting shows a protein as a band on a membrane.

Data set [4] has as its system TcdB2. Nature of the data set: Surface plasmon resonance (SPR). In kind it is binding, Clostridium difficile. The procedure:
(§1) Surface plasmon resonance (SPR) analysis was performed using a Biacore 3000 instrument (OMRF Biacore Core Facility). TcdB2, TcdB2Δ1853–2366, TcdB2_1851–2366, or BSA was captured on a CM5 sensor chip via amine coupling chemistry based on EDC/N-hydroxysuccinimide (NHS) activation of the carboxymethyl groups of the sensor chip surface. For TcdB2 conjugation, 1 μM TcdB2 or TcdB2Δ1853–2366 was injected at a flow rate of 10 μl/min. TcdB2_1851–2366 was injected at a concentration of 2.5 μM with a flow rate of 10 μl/min. After protein conjugation, ethanolamine was passed over the sensor chip to deactivate unreacted NHS esters. The running buffer used for the binding experiments consisted of 25 mM HEPES (pH 7.4), 150 mM NaCl, and 0.01% Tween 20, and the chip regeneration buffer consisted of 50 mM NaOH and 1 M NaCl.
In general terms: SPR reads the build-up and loss of mass on a sensor chip optically.

The subject of data set [5] is TcdB2Δ1853–2366. Description: Surface plasmon resonance (SPR). The data set is classed as binding, Clostridium difficile. As to conditions: 40 µM PepB2, 20 μl/min, 25°C. As for the experimental part:
as §1

The test system of data set [6] is TcdB1. Nature of the data set: Cytotoxicity assay in CHO-K1 cells (CCK-8). In kind it is cell-based, Clostridium difficile. Conditions: 24 h, 50 µM peptide, n = 3. As for the experimental part: (§2) In cytotoxicity assays, CHO-K1 cells were seeded in 96-well plates at a density of 1.0 × 10^4 cells/well and allowed to attach overnight. Cells were incubated with toxin or toxin plus peptide for 24 h, and then cell viability was quantified by the cell counting kit 8 (CCK-8) assay (Sigma), a WST-8 dye-based colorimetric reaction.

Data set [7] deals with TcdB2. Nature of the data set: Cytotoxicity assay in CHO-K1 cells (CCK-8). The data set is classed as cell-based, Clostridium difficile. Conditions: 24 h, 50 µM peptide, n = 3. The procedure: as §2
For data set [8], the system named is TcdB. Description: Intracellular Rac1 glucosylation in CHO-K1 cells (immunoblot). In kind it is cell-based, Clostridium difficile. Conditions: TcdB 0.037-3.7 pM, 25 h, 50 µM peptide. The procedure: CHO-K1 cells were cultured as described above and were seeded the day before the experiment in 24-well plates at a density of 5.0 × 10^4 cells/well. TcdB was then combined with peptide in complete culture medium and added to cells. Following this exposure, total proteins were extracted by removing culture medium and adding cold lysis buffer (1% SDS, 50 mM Tris-HCl [pH 7.4], 5 mM EDTA, and a protease inhibitor mixture). For each condition, equal amounts of total protein were analyzed by immunoblot probing with a mouse monoclonal antibody to total Rac1 (EMD Millipore; catalog no. 05-389) or a mouse monoclonal antibody recognizing nonglucosylated Rac1 (BD Bioscience; catalog no. 610651).

For data set [9], the system named is TcdB. Description: In vitro autoprocessing assay with IP6. In kind it is biochemical, Clostridium difficile. As to conditions: 37 pM TcdB, 500 µM IP6, 1 h 37°C, 50 µM peptide, n = 4. The procedure:
TcdB autoprocessing was activated by incubating 37 pM TcdB with 500 µM inositol hexakisphosphate (IP6) for 1 h at 37°C in a buffer consisting of 50 mM HEPES (pH 7.5), 150 mM NaCl, and 20 mM dithiothreitol (DTT). After the reaction was stopped by heating the samples at 95°C for 7 min in SDS-PAGE sample buffer, cleavage of TcdB was evaluated by an immunoblot assay probing with antibodies to the amino-terminal domain of TcdB (R&D Systems; catalog no. AF6246).

Data set [10] in a line: Oligomerization by BS3 cross-linking and SDS-PAGE. In kind it is physicochemical. Conditions: 1.4 mM peptide, 5 mM BS3, 25 mM HEPES pH 7.4, 150 mM NaCl, 30 min 25°C; 4 to 20% SDS-PAGE, Coomassie. The procedure: Peptides were cross-linked using bis(sulfosuccinimidyl)suberate (BS^3), which is a water-soluble homobifunctional cross-linking agent that reacts with primary amine groups. The cross-linking reaction was performed with 1.4 mM peptide and 5 mM BS^3 in a buffer consisting of 25 mM HEPES (pH 7.4) and 150 mM NaCl. The reaction proceeded for 30 min at 25°C and then was quenched with 100 mM Tris, pH 8.0.

Data set [11] concerns TcdB. Nature of the data set: Dialysis (50-kDa cutoff) followed by cytotoxicity assay in CHO-K1 cells. The data set is classed as cell-based, Clostridium difficile. Conditions: for TcdB-inhibitory activity retained after dialysis: 125 μM inhibitor in serum-free F-12–K, 50-kDa-cutoff membrane into PBS, about 62.5 μM tested, CHO-K1, 24 h, 0.4 pM TcdB, n = 3. As for the experimental part:
as §2
Inhibitors were diluted to 125 μM in F-12–K medium lacking FBS. Then, 1 ml of the diluted inhibitor was dialyzed with a 50-kDa-cutoff membrane into 2 liters of PBS while stirring. After 3 h, the PBS was discarded and replaced with an additional 1.5 liters of PBS. After 2 more hours of stirring dialysis, the inhibitors were removed from the dialysis tube and diluted into F-12–K medium containing 20% FBS. This produced an inhibitor concentration of approximately 62.5 μM that was then tested for TcdB inhibition using a cytotoxicity assay described above. As controls, a portion of the diluted inhibitors were subjected to mock dialysis conditions and also tested in a cytotoxicity assay.

Data set [12] concerns bovine serum albumin (BSA). Nature of the data set: Surface plasmon resonance (SPR), reference channel. The data set is classed as binding. The procedure: as §1
Data set [13] deals with TcdB2Δ1853–2366. Nature of the data set: Cytotoxicity assay in CHO-K1 cells. In kind it is cell-based, Clostridium difficile. As to conditions: 24 h, n = 3. The procedure:
as §2

The subject of data set [14] is TcdA. Description: Cytotoxicity assay in CHO-K1 cells. In kind it is cell-based, Clostridium difficile. Conditions: 24 h, 50 µM peptide, n = 3. The procedure:
as §2

Data set [15] concerns TcdB. Description: In vitro Rac1 glucosylation assay. In kind it is biochemical, Clostridium difficile. As to conditions: TcdB 1.2-24 nM, 400 nM GST-Rac1, 40 μM UDP-glucose, 37°C 1 h, 50 µM peptide, n = 3. As for the experimental part:
(§3) To determine how PepB2 influences the glucosylation activity of TcdB, 400 nM purified GST-Rac1 and 40 μM UDP-glucose were combined with a range of concentrations of TcdB (1.2 nM to 24 nM) or GTD (0.5 nM to 25 nM). These reactions were performed in 20 μl of buffer consisting of 50 mM HEPES (pH 7.5), 100 mM KCl, 2 mM MgCl2, 1 mM MnCl2, and 100 μg/ml BSA. The reactions were carried out at 37°C for 1 h and were stopped by heating the samples at 95°C for 7 min in sample buffer (62.5 mM Tris-HCl [pH 6.8], 2% SDS, 10% glycerol, 5% β-mercaptoethanol, and 0.001% bromphenol blue). An immunoblotting assay was then performed by probing with a mouse monoclonal antibody to total Rac1 (EMD Millipore; catalog no. 05-389) or a mouse monoclonal antibody recognizing nonglucosylated Rac1 (BD Bioscience; catalog no. 610651).

Data set [16] concerns purified recombinant GTD (TcdB aa 1 to 543). Description: In vitro Rac1 glucosylation assay. Conditions: GTD 0.5-25 nM, 50 µM peptide, n = 2. In kind it is biochemical, Clostridium difficile. The procedure: as §3

Regarding `CC[C@H](C)[C@H](NC(=O)[C@H](CCCCN)NC(=O)[C@H](CC(=O)O)NC(=O)[C@H](CO)NC(=O)[C@@H](NC(=O)[C@@H](NC(=O)[C@H](CC(N)=O)NC(=O)CNC(=O)[C@H](CCCCN)NC(=O)[C@H](Cc1ccccc1)NC(=O)[C@@H](NC(=O)[C@@H](N)CC(N)=O)C(C)C)[C@@H](C)O)[C@@H](C)CC)C(=O)N[C@@H](CO)C(=O)N[C@@H](Cc1ccccc1)C(=O)N[C@@H](CC(N)=O)C(=O)N[C@@H](Cc1ccccc1)C(=O)N[C@@H](CO)C(=O)N[C@@H](CC(=O)O)C(=O)N[C@@H](CCCCN)C(=O)O` [PepB2], in data set [1], the “effect on TcdB-mediated disruption of transepithelial resistance” value is given as “prevented TcdB-mediated disruption of transepithelial resistance”. The “inhibition of Bacillus anthracis lethal toxin cytotoxicity” value in data set [2] is “did not block cytotoxicity”. For the same compound, the “TcdB association with cells, 10 min” value in data set [3] (10 min, n = 4) is recorded as “significantly reduced”. Besides, in [3] (30 min), the “TcdB association with cells, 30 min” value is recorded as “not reduced” and the “TcdB proteolytic cleavage on cells, 30 min” value was “causes TcdB to become susceptible to proteolytic cleavage”. Further, the “binding to sensor chip-immobilized TcdB” value in data set [4] (SPR, Biacore 3000, CM5 chip, 5 μl/min, 25°C, BSA reference subtracted) is reported as “binds TcdB”. In addition, in data set [4] (calculated from change in response units on immobilized TcdB), the “number of peptide molecules bound per single molecule of TcdB” value is listed as “approximately 250 molecules”. Besides, the “binding to TcdB2Δ1853–2366 compared with equal moles of TcdB2” value in [5] is given as “much higher levels of PepB2 bound TcdB2 than TcdB2Δ1853–2366”. Besides, the “increase of the 50% toxic concentration (TC50) of TcdB1” value in [6] (range of toxin concentrations) amounted to 500 fold. Moreover, in data set [7] (range of toxin concentrations), the “increase of the 50% toxic concentration (TC50) of TcdB2” value came out at 200 fold. Moreover, in [8], the “effect on Rac1 glucosylation by TcdB in treated cells” value is recorded as “prevented Rac1 glucosylation by TcdB in treated cells”. Moreover, the “effect on IP6-induced TcdB autoproteolysis” value in data set [9] is recorded as “enhanced the efficiency of IP6-induced TcdB autoproteolysis”. Moreover, the “oligomerization after BS3 cross-linking” value in [10] is listed as “unable to migrate by SDS-PAGE”. Further, the “TcdB-inhibitory activity retained after dialysis” value in [11] is “TcdB-inhibitory activity was not removed”. For the same compound, the “size of inhibitory oligomer” value in [11] (retained by 50-kDa-cutoff dialysis membrane) is greater than 50 kDa. Further, the “binding to BSA-coated reference channel” value in data set [12] is given as “did not bind”. Moreover, the “decrease in sensitivity of TcdB2Δ1853–2366 to peptide relative to full-length TcdB2” value in [13] is recorded as 10 fold. Also, the “inhibition of TcdA cytotoxicity” value in data set [14] is on record as “did not block cytotoxicity”. In addition, the “effect on in vitro glucosylation of Rac1 by TcdB” value in [15] is recorded as “did not suppress the in vitro glucosylation of Rac1 by TcdB but instead appeared to increase enzymatic activity”. Besides, the “effect on glucosyltransferase activity of purified recombinant GTD” value in [16] is given as “no effect on the glucosyltransferase activity”.
In the case of `COC(=O)CC[C@@H](C)[C@H]1CC[C@H]2[C@@H]3[C@H](O)C[C@@H]4C[C@H](O)CC[C@]4(C)[C@H]3C[C@H](O)[C@]12C` [methyl cholate, reference compound], the “TcdB-inhibitory activity retained after dialysis” value in data set [11] is “toxin-inhibitory activity was lost”.
“PepB1: peptide based on the 1769-to-1787 region of TcdB1 (NVFKDKTLANKLSFNFSDK; UniProt P18177 1769-1787, looked up, fragment)”: the “inhibition of TcdB1 cytotoxicity” value in data set [6] is “did not inhibit the cytotoxicity”. For the same compound, the “inhibition of TcdB2 cytotoxicity” value in data set [7] is “did not inhibit the cytotoxicity”. Moreover, in data set [10], the “oligomerization after BS3 cross-linking” value is on record as “migrated into the gel in a similar pattern as uncross-linked control peptides”.
